In patent US7595294B2, “Vasoactive intestinal polypeptide pharmaceuticals” (Transition Therapeutics, Inc., priority 2004, dated 2009):
Where no end group is shown, it is not given here.

Legend:
db/db mice = experiment: In vivo bioassay: blood glucose in db/db mice after intraperitoneal injection; details: for Mean Blood Glucose Levels: i.p.; for Activity (reduced plasma glucose), in words: high dose
Method: Tested Study Groups. Naïve, 8 weeks old female db/db mice were acclimated for one week, during which period animals were handled periodically to allow them to be acclimated to experiment procedures. Study groups contained 6 mice per group and were administered with one of the following by intraperitoneal injection:
(2) Positive control (exendin-4 or other standard treatment);
(3) Polypeptide Analog at high dose; or
(4) Polypeptide Analog at low dose.
A small volume of blood was taken from a cut at the tip of tail for blood sampling. Blood glucose levels were determined on a commercial, hand-held glucose meter. On Day 1, animals were injected with polypeptide analogs and controls in the morning. Blood samples were taken and analyzed immediately before injection and at 2, 4, 8, 14, and 24 hours after injection. Animals were allowed to feed, ad libitem, throughout the assay (Tsutsumi et al., Diabetes 51:1453-60 (2002)).

Rat islets = experiment: In vitro bioassay with islet cell static cultures (insulin secretion, ELISA); format: cell-based; details: for Insulin secreted: Table 2, 120 min incubation; for Concentration at which maximal activity was exhibited in the assay: islet static culture, insulin secretion; for Average Insulin secreted: Table 3
Method: Islet isolation. […] Generally, the islets were prepared by injecting collagenase (10 mL of 0.23 mg/mL Liberase, Roche Molecular Biochemicals, Indianapolis, Ind.) into the pancreatic duct of the partially dissected pancreas and surgically removing it. All procedures were approved by the Institutional Animal Care and Use Committee at the University of Washington.
The pancreata were placed into 15 mL conical tubes containing 5 mL of 0.23 mg/mL Liberase and incubated at 37° C. for 30 min. The digestate was then filtered through a 400-micrometer stainless steel screen, rinsed with Hanks' buffered salt solution, and purified in a gradient solution of Optiprep (Nycomed, Oslo, Norway).
Bioassay. Islets were picked under a microscope and placed into 10 ml 3 mM Krebs Ringer Buffer (KRB) solution for washing. Islets were incubated in 3 mM glucose KRB for 60 min and then groups of 10 islets per well were placed into 200 μl media in a 96-well plate. […] The buffer conditions were KRB with 0.1% BSA, 20 mM HEPES and the assay was performed in quadruplicate. Supernatants were evaluated for insulin content using a commercial insulin enzyme-linked immunosorbent (ELISA) assay per manufacturer's directions.

[1] = High dose, 0 hr (immediately before injection)
[2] = High dose, 2 hr after injection
[3] = High dose, 4 hr after injection
[4] = High dose, 8 hr after injection
[5] = High dose, 14 hr after injection
[6] = High dose, 24 hr after injection
[7] = Low dose, 0 hr (immediately before injection)
[8] = Low dose, 14 hr after injection
[9] = Low dose, 24 hr after injection

Substance | Mean Blood Glucose Levels (db/db mice; [1]) | Mean Blood Glucose Levels (db/db mice; [2]) | Mean Blood Glucose Levels (db/db mice; [3]) | Mean Blood Glucose Levels (db/db mice; [4]) | Mean Blood Glucose Levels (db/db mice; [5]) | Mean Blood Glucose Levels (db/db mice; [6]) | Mean Blood Glucose Levels (db/db mice; [7]) | Mean Blood Glucose Levels (db/db mice; Low dose, 2 hr after injection) | Mean Blood Glucose Levels (db/db mice; Low dose, 4 hr after injection) | Mean Blood Glucose Levels (db/db mice; Low dose, 8 hr after injection) | Mean Blood Glucose Levels (db/db mice; [8]) | Mean Blood Glucose Levels (db/db mice; [9]) | Insulin secreted (Rat islets; 50 nM peptide + 16 mM glucose) | Insulin secreted (Rat islets; 200 nM peptide + 16 mM glucose) | Concentration at which maximal activity was exhibited in the assay (Rat islets) | Activity (reduced plasma glucose), in words (db/db mice; 2 hr after injection) | Activity (reduced plasma glucose), in words (db/db mice; 4 hrs post dosing) | Average Insulin secreted (Rat islets; 10 nM peptide + 16 mM glucose) | Average Insulin secreted (Rat islets; 100 nM peptide + 16 mM glucose) | Average Insulin secreted (Rat islets; 1 uM peptide + 16 mM glucose)
TP-103: exemplary synthetic polypeptide analog of PACAP/VIP, amino acid sequence SEQ ID NO: 2 (HSDAVFTDNYTRLRKQVAAKKYLNSIKKGKRELLEKLLRKLK; ends and bridges not checked) | 20.7 mmol/L | 17.3 mmol/L | 16.9 mmol/L | 23.4 mmol/L | 23.7 mmol/L | 25.0 mmol/L | 22.9 mmol/L | 20.5 mmol/L | 17.6 mmol/L | 26.4 mmol/L | 24.6 mmol/L | 21.4 mmol/L |  |  |  |  |  |  |  | 
TP-106: highly hydrophobic polypeptide analog, designed to depot in the site of sc injection; SEQ ID NO: 5 (HSDAVFTDNYTRLRKQVAAKKYLNSIKKGKRELLEKLK) | 21.8 mmol/L | 13.4 mmol/L | 14.7 mmol/L | 25.1 mmol/L | 26.3 mmol/L | 21.2 mmol/L | 23.9 mmol/L | 20.5 mmol/L | 16.1 mmol/L | 24.0 mmol/L | 28.2 mmol/L | 23.2 mmol/L | 2.72 ng/100 islets/min | 5.20 ng/100 islets/min | 200 nM | statistically significant activity | maintains activity |  |  | 
TP-107: exemplary synthetic polypeptide analog of PACAP/VIP, amino acid sequence SEQ ID NO: 6 (HSDAVFTDNYTRLRKQVAAKKYLNWIKKAKRELLEKLK; ends and bridges not checked) |  |  |  |  |  |  |  |  |  |  |  |  |  |  | 100 nM |  |  | 2.89 ng/100 islets/min | 6.10 ng/100 islets/min | 6.07 ng/100 islets/min
TP-108: exemplary synthetic polypeptide analog of PACAP/VIP, amino acid sequence SEQ ID NO: 7 (HSDAVFTDNYTRLRKQLAAKKYLNSIKKGKRLLRKLQPPPK; ends and bridges not checked) |  |  |  |  |  |  |  |  |  |  |  |  |  |  |  |  |  |  | 4.10 ng/100 islets/min | 5.65 ng/100 islets/min
